For the assay, the system named is Phellinus tremulae. As to the kind of experiment: Antifungal activity against Phellinus tremulae at 1 mg/mL. The format is functional.

As to `COc1cc(C)cc2c1C(=O)c1c(O)cc(O)cc1C2=O` [1-O-METHYLEMODIN], the inhibition at 1000 µg/mL was 50%. The figure for `COc1cc(C)cc2c1C(=O)c1c(O)cc(O)c(Cl)c1C2O` (configuration not stated) is 50%.

One may read the inhibition as the share of the control response that was lost under treatment. Low readings indicate a weak effect, high ones a strong effect.

The record behind these values is ChEMBL document CHEMBL1149044, “Anthraquinones and a 10-Hydroxyanthrone from Phialophora alba” (1994).
